Data: ChEMBL document CHEMBL1133145, “Novel photoreactive cinnamic acid analogues to elucidate phenylalanine ammonia-lyase” (Bioorg Med Chem Lett, 2000)

Experiment: Inhibitory activity against Phenylalanine Ammonia-lyase (PAL)

**Q.** For `O=C(O)/C=C/c1ccc(C2(C(F)(F)F)N=N2)cc1OCCOCCOCCNC(=O)CCCC[C@@H]1SCC2NC(=O)NC21` (some centres not stated), which Ki is on record?
**A.** The Ki was 520 µM.

**Q.** For `COc1cc(C2(C(F)(F)F)N=N2)ccc1/C=C/C(=O)O`, which Ki is on record?
**A.** Its Ki is 240 µM.
